In BigSolDB 2.1:

Nc1ccc(S(=O)(=O)Nc2ncccn2)cc1
solubility (mole fraction)
Conditions | 278.15 K | 283.15 K | 288.15 K | 293.15 K | 298.15 K | 303.15 K | 308.15 K | 313.15 K
in NMP | 0.0118 | 0.0137 | 0.0153 | 0.018 | 0.0194 | 0.0224 | 0.132 | 0.137
in water | 1.89e-06 | 2.51e-06 | 3.18e-06 | 3.96e-06 | 5.13e-06 | 6.32e-06 | 8.03e-06 | 9.98e-06
